Results on nine compounds are retold here after PMC9034021 (RSC Advances, 2021).

Each structure is given as a SMILES string.

The target of assay [1] is BuChE (from equine serum) (Equus caballus, UniProt P81908). The experiment in a line: BuChE inhibitory activity, Ellman's method with slight modification. Type of assay: biochemical. (In general: Ellman's reagent forms a yellow product with free thiols.)
Assay [2] has as its target AChE (from Electrophorus electricus) (Electrophorus electricus, UniProt O42275). The assay can be described thus: biochemical. Type of assay: biochemical.

Sequence of BuChE (from equine serum) (P81908 whole entry): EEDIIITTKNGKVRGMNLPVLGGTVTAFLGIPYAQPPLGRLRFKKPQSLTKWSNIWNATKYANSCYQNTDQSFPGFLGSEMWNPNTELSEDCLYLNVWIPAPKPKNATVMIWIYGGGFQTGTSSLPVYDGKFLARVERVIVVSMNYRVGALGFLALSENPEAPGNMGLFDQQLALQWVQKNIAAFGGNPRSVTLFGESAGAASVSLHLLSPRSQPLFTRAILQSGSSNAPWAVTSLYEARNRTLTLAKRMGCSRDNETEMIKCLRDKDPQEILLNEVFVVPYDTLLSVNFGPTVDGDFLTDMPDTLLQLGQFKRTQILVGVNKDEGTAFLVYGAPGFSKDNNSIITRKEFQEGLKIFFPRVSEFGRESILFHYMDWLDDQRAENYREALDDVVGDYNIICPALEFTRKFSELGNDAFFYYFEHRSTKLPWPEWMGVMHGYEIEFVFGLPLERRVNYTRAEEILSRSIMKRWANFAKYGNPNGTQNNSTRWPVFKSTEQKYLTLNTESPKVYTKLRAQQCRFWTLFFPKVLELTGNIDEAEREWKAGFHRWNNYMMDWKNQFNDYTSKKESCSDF
Sequence of AChE (from Electrophorus electricus) (O42275 24-633): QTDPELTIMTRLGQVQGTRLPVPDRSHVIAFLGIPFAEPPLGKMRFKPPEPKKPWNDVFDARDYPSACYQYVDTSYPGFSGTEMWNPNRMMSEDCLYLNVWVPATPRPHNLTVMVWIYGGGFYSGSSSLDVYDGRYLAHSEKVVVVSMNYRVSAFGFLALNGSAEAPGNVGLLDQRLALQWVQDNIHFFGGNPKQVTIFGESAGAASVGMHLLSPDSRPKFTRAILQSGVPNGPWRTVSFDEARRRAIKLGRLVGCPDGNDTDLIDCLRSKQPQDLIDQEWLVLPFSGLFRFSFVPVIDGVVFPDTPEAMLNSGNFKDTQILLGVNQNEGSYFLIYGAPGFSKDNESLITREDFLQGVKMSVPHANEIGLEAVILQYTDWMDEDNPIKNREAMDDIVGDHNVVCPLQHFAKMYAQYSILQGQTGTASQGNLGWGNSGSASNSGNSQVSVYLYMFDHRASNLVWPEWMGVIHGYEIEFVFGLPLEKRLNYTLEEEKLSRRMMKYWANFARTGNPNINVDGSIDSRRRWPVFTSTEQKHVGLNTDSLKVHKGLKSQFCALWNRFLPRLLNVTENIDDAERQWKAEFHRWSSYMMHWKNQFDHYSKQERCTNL

The IC50 is the concentration needed to halve the response being measured. Read a low IC50 as higher potency. For the compound `COc1cc2c(cc1O)[C@@H]1Cc3ccc(O)c(OC)c3CN1CC2` [Compound 12, stepholidine], the IC50 in assay [1] is 221.2 ± 1.62 µM.
`COc1cc2c(cc1OC)[C@@H]1Cc3ccc(OC)c(OC)c3CN1CC2` [Compound 14, tetrahydropalmatine] displayed an IC50 in assay [1] of 65.3 ± 0.8 µM.
On to `COc1cc2c(cc1O)CC[n+]1cc3c(OC)c(OC)ccc3cc1-2` [Compound 18, jatrorrhizine], for which the IC50 in assay [2] was found to be 12.3 ± 0.44 µM; in assay [1], 31.46 ± 0.2 µM.
In turn, `CN1CCc2cc3c(c4c2C1Cc1ccccc1-4)OCO3` (stereo not shown) [Compound 22, roemerine] had an IC50 in assay [2] of 8.32 ± 0.12 µM. In addition, in assay [1], the “BuChE inhibition, fold more active than galanthamine” value is reported as “approximately 1.3 fold” and inhibition was half-maximal at 2.85 ± 0.08 µM (IC50).
In the case of `COc1ccc2c(c1OC)CC1c3c(cc4c(c3-2)OCO4)CCN1C` (stereo not shown) [Compound 25, crebanine], in assay [2], the IC50 came to 17.4 ± 0.22 µM and the “anti-AChE activity, fold less active than the 9,10-dimethoxy analogue 26” value is listed as 2.8 fold. Also, in assay [1], the IC50 stood at 10.5 ± 0.27 µM and the “anti-BuChE activity, fold higher than that of 26” value worked out at 2.5 fold.
In the case of `COc1cc2c(cc1OC)-c1c3c(cc4ccnc(c14)C2=O)OCO3` [Compound 35, dicentrinone], the IC50 in assay [2] came to 265.8 ± 0.8 µM.
`COc1cc2cc3c4c(cc5c(c4c2cc1OC)OCO5)CCN3C` [Compound 42, dehydrodicentrine]: the “anti-BuChE activity, fold increase of the dehydroaporphine” value in assay [1] (relative to the aporphine group, comparator not named) is listed as 4.7 fold.
Turning to `COc1cc2c(cc1O)C(Cc1ccc(O)cc1)NCC2` (stereo not shown) [Compound 44, coclaurine], the IC50 in assay [2] stood at 40.9 ± 0.67 µM; in assay [1], 20.5 ± 0.42 µM.
For the compound `COC1=C[C@]23CCN(C)[C@H](Cc4ccc(OC)c(O)c42)C3=CC1=O` [Compound 45, salutaridine], the IC50 in assay [2] was 7.49 ± 0.66 µM.
